What was measured:
[1] = system: IL-2-FL/Gaussia Luciferase; experiment: Dox Induced IL2-FL-Gluc Assay; assay type: cell-based; details: for IC50: 24 hr Dox induction, 293FRT/TO cells, read-out: 24 hr Dox Inducible IL2FLGluc 293FRT/TO: Mean IC50; for 24 hr Dox Inducible IL2FLGluc 293FRT/TO: IL2/PD1: ratio of IL2FLGluc IC50 to PD1ssGluc IC50
Outline: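 Stable Flp-In 293 T-REx cells carrying doxycycline-inducible full-length IL-2 (aa 1-153) fused to Gaussia luciferase, plated the day before assay. Compound dilutions added in medium containing doxycycline, incubated at 37 °C, 5% CO2. Undefined stereocentres mean data refer to stereoisomer mixtures.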

[2] = Liver Microsome Stability Assay (mouse); details: mouse liver microsomes, with NADPH, 1.0 uM compound
Procedure: (§1) Stability of a compound was assessed in the presence of liver microsomes from various sources—mouse, rat, monkey and human liver microsomes. 1.0 uM compound, 0.4% DMSO in 0.1 M Potassium Phosphate with 1.0 mg/mL liver microsomes, were incubated at 37° C. with or without 1 mM NADPH. The samples were quenched at 0, and 30 minutes.

[3] = Liver Microsome Stability Assay (human); details: human liver microsomes, with NADPH, 1.0 uM compound
Procedure: as §1

[4] = system: HER3-ss+4aa/Gaussia Luciferase; experiment: Dox-Induced Her3-ss-Gluc Assay; assay type: cell-based; details: 24 hr Dox induction; 293FRT/TO cells; read-out: 24 hr Dox Inducible Her3(ss + 4)Gluc 293FRT/TO: Mean IC50
Outline: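 Stable Flp-In 293 T-REx cells carried a doxycycline-inducible HER3 signal sequence (+4 aa) fused to Gaussia luciferase. Cells were plated the day before the assay. Compound dilutions in DMSO/media containing doxycycline were then added, and plates were incubated at 37 °C, 5% CO2.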

[5] = system: PD1-ss+10aa/Gaussia Luciferase; experiment: Dox-Induced PD1-ss-Gluc Assay; assay type: cell-based; details: 24 hr Dox induction; 293FRT/TO cells; read-out: 24 hr Dox Inducible PD1ssGluc 293FRT/TO: Mean IC50
Outline: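 Flp-In 293 T-REx, stable line; Tet-regulated PD1-ss+10aa fused to Gaussia luciferase; plated day prior; cpd + doxycycline in DMSO/media; 37 °C, 5% CO2.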

[6] = system: TNFα-FL/Gaussia Luciferase; experiment: Dox Induced TNFα-FL-Gluc Assay; assay type: cell-based; details: for IC50: 24 hr Dox induction, 293FRT/TO cells, read-out: 24 hr Dox Inducible TNFaFLGluc 293FRT/TO: Mean IC50; for 24 hr Dox Inducible TNFaFLGluc 293FRT/TO: TNF/PD1: ratio of TNFaFLGluc IC50 to PD1ssGluc IC50
Outline: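 Flp-In 293 T-REx cells stably carrying doxycycline-inducible full-length TNFα (aa 1-233) fused to Gaussia luciferase. Plated the day before, then treated with compound dilutions in doxycycline-containing medium at 37° C, 5% CO2.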

[7] = system: multiple myeloma cell line U266B1; experiment: U266 Cell Viability Assay; assay type: cell-based, human; details: Homo sapiens, U-266, 48 h, U266B1 cells, Celltiter-Glo
Outline: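 U266B1 multiple myeloma cells in RPMI 1640/10% FBS were treated with compound dilutions for 48 h at 37 °C, 5% CO2. Viability was measured by CellTiter-Glo luminescence; compounds drawn without stereochemistry were tested as stereoisomer mixtures.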

[8] = Liver Microsome Stability Assay (rat); details: rat liver microsomes, with NADPH, 1.0 uM compound
Procedure: as §1

[9] = system: multiple myeloma cell line NCI-H929; experiment: H929 Cell Viability Assay; assay type: cell-based, human; details: Homo sapiens, NCI-H929, 48 h, NCI-H929 cells, Celltiter-Glo
Outline: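 NCI-H929 cells in RPMI 1640 with 10% FBS were treated with compound dilutions for 48 h at 37° C, 5% CO2. Viability was read by CellTiter-Glo luminescence. Undefined stereocentres denote stereoisomer mixtures.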

[10] = Liver Microsome Stability Assay (monkey); details: monkey liver microsomes, with NADPH, 1.0 uM compound
Procedure: as §1

Structure (SMILES)	IC50 [1]	Liver Microsome Stability (Multiple Species): Mouse - % Remaining after 30 min w/NADPH [2]	Liver Microsome Stability (Multiple Species): Human - % Remaining after 30 min w/NADPH [3]	IC50 [4]	IC50 [5]	IC50 [6]	EC50 [7]	Liver Microsome Stability (Multiple Species): Rat - % Remaining after 30 min w/NADPH [8]	EC50 [9]	Liver Microsome Stability (Multiple Species): Monkey - % Remaining after 30 min w/NADPH [10]	24 hr Dox Inducible IL2FLGluc 293FRT/TO: IL2/PD1 [1]	24 hr Dox Inducible TNFaFLGluc 293FRT/TO: TNF/PD1 [6]
CC(=O)N1CC(CCc2ccc(N3CCC[C@@H]3c3csc(NC(=O)c4cccn4Cc4ccnc(F)c4)n3)cc2)C1 [Compound A176]	41.8 nM	2.72%	1.34%	31 nM	15 nM	487 nM	> 25 µM	18.6%	438 nM	0.16%	2.8	32.4
O=C(Nc1ccc(N2CCC[C@@H]2c2csc(NC(=O)c3cccn3Cc3ccnc(F)c3)n2)cc1)OC1COC1 [Compound A177, oxetan-3-yl (R)-(4-(2-(2-(1-((2-fluoropyridin-4-yl)methyl)-1H-pyrrole-2-carboxamido)thiazol-4-yl)pyrrolidin-1-yl)phenyl)carbamate]	2.79 nM	29.1%	39.3%	2.39 nM	0.93 nM	25.8 nM	> 25 µM	57.1%	16.2 nM	9.52%	3	27.6
O=C(Nc1ccc(N2CCC[C@@H]2c2csc(NC(=O)c3cccn3Cc3ccnc(F)c3)n2)cc1)OC1CNC1 [Compound A178, azetidin-3-yl (R)-(4-(2-(2-(1-((2-fluoropyridin-4-yl)methyl)-1H-pyrrole-2-carboxamido)thiazol-4-yl)pyrrolidin-1-yl)phenyl)carbamate]	107 nM	70.6%	72.8%	76.3 nM	23.9 nM	931 nM	7.4 µM	51.4%	525 nM	70.8%	4.5	39
CC(=O)N1CC(OC(=O)Nc2ccc(N3CCC[C@@H]3c3csc(NC(=O)c4cccn4Cc4ccnc(F)c4)n3)cc2)C1 [Compound A179, 1-acetylazetidin-3-yl (R)-(4-(2-(2-(1-((2-fluoropyridin-4-yl)methyl)-1H-pyrrole-2-carboxamido)thiazol-4-yl)pyrrolidin-1-yl)phenyl)carbamate]	9.01 nM	34.8%	21.3%	6.96 nM	2.63 nM	138 nM	> 25 µM	69.3%	70.5 nM	15.4%	3.4	52.3
COC(=O)Nc1ccc(N2CCC[C@@H]2c2csc(NC(=O)c3cc(C)cn3Cc3ccnc(F)c3)n2)nc1 [Compound A180, methyl (R)-(6-(2-(2-(1-((2-fluoropyridin-4-yl)methyl)-4-methyl-1H-pyrrole-2-carboxamido)thiazol-4-yl)pyrrolidin-1-yl)pyridin-3-yl)carbamate]	14.3 nM	14.4%	8.99%	3.7 nM	4.95 nM	49.8 nM	> 25 µM	3.14%	715 nM	7.35%	52.35	440.37

Second part, led by results:

IC50 [1]	Liver Microsome Stability (Multiple Species): Mouse - % Remaining after 30 min w/NADPH [2]	Liver Microsome Stability (Multiple Species): Human - % Remaining after 30 min w/NADPH [3]	IC50 [4]	IC50 [5]	IC50 [6]	EC50 [7]	Liver Microsome Stability (Multiple Species): Rat - % Remaining after 30 min w/NADPH [8]	EC50 [9]	Liver Microsome Stability (Multiple Species): Monkey - % Remaining after 30 min w/NADPH [10]	Structure (SMILES)	24 hr Dox Inducible IL2FLGluc 293FRT/TO: IL2/PD1 [1]	24 hr Dox Inducible TNFaFLGluc 293FRT/TO: TNF/PD1 [6]
19900 nM	5.93%	1.81%	13000 nM	129 nM	> 25000 nM	> 25 µM	4.96%	> 25000 nM	1.07%	O=C(Nc1nc(/C=C/c2cocn2)cs1)c1cccn1Cc1ccncc1 [Compound B1, (E)-N-(4-(2-(oxazol-4-yl)vinyl)thiazol-2-yl)-1-(pyridin-4-ylmethyl)-1H-pyrrole-2-carboxamide]	160	>194
> 25000 nM	7.06%	0.69%	> 25000 nM	220 nM	> 25000 nM	> 25 µM	1.8%	> 25000 nM	0.9%	Cc1nc(/C=C/c2csc(NC(=O)c3cccn3Cc3ccncc3)n2)co1 [Compound B2, (E)-N-(4-(2-(2-methyloxazol-4-yl)vinyl)thiazol-2-yl)-1-(pyridin-4-ylmethyl)-1H-pyrrole-2-carboxamide]	110	>114
> 25000 nM	1.26%	0.87%	> 25000 nM	2160 nM	> 25000 nM	> 25 µM	0.69%	> 25000 nM	0.47%	O=C(Nc1nc(/C=C/c2ccon2)cs1)c1cccn1Cc1ccncc1 [Compound B5, (E)-N-(4-(2-(isoxazol-3-yl)vinyl)thiazol-2-yl)-1-(pyridin-4-ylmethyl)-1H-pyrrole-2-carboxamide]	12	>11.6
> 25000 nM	10%	5.85%	> 25000 nM	4400 nM	> 25000 nM	> 25 µM	13.2%	> 25000 nM	6.93%	CN1CCOC(/C=C/c2csc(NC(=O)c3cccn3Cc3ccncc3)n2)C1 (stereo not drawn) [Compound B6, (E)-N-(4-(2-(4-methylmorpholin-2-yl)vinyl)thiazol-2-yl)-1-(pyridin-4-ylmethyl)-1H-pyrrole-2-carboxamide]	5.7	>5.68
1270 nM	12.3%	1.32%	800 nM	330 nM	7870 nM	21.4 µM	2.33%	21900 nM	0.74%	O=C(Nc1nc(/C=C/C2CCc3ccccc3N2)cs1)c1cccn1Cc1ccncc1 (stereo not drawn) [Compound B7, (E)-1-(pyridin-4-ylmethyl)-N-(4-(2-(1,2,3,4-tetrahydroquinolin-2-yl)vinyl)thiazol-2-yl)-1H-pyrrole-2-carboxamide]	3.8	23.9

Reference: patent US20230286973A1, “PROTEIN SECRETION INHIBITORS” (KEZAR LIFE SCIENCES, priority 2020, published 2023)
